Patent publication US12590099B2, “Inhibitors of histone deacetylase useful for the treatment or prevention of HIV infection” (Merck Sharp & Dohme LLC, priority 2018, dated 2026)

Tests used:
Format in all cases: biochemical
Recombinant human HDAC1 = biological target: T1, Recombinant human HDAC1 (Homo sapiens, UniProt Q13547); test: Human HDAC enzyme inhibitor Fluor-de-Lys assay, HDAC1
T1 construct: FLAG (C); made in house
Method: (§1) Human HDAC Enzyme Inhibitor Fluor-De-Lys Assay
(§2) Recombinant human HDAC8 (BML-SE145-0100) and HDAC10 (BML-SE559-0050) enzymes, HDAC substrates BML-KI104 and BML-KI178, and HDAC developer solutions BML-KI105 and BML-KI176 were purchased from Enzo Life Sciences. […] HDAC inhibitor suberoylanilide hydroxamic acid (SAHA) was obtained from Indofine and trichostatin A (TSA) was obtained from Sigma-Aldrich.
(§3) Recombinant human HDAC1, HDAC2, and HDAC3/SMRT heterodimer were prepared by Merck Research Laboratories. […] The eluted protein was then passed over an anti-HDAC1 immunoaffinity column to remove any complexes containing HDAC1. […]
(§4) The histone deacetylase activities of HDAC1, HDAC2, HDAC3, HDAC6, and HDAC8 were measured in modified FLUOR DE LYS assays in 384-well format. In this assay, HDAC enzymes are initially incubated with an ε-acetyl (or -trifluoroacetyl)-L-lysine-containing substrate with a C-terminal amide having aminomethylcoumarin as the amine component. HDACs cleave the ε-acetyl group, rendering the resulting product susceptible to AMC cleavage by trypsin. The released AMC is then detected by its fluorescence.
(§5) The HDAC3/SMRT assay employed buffer B, consisting of 20 mM HEPES, pH 8.0, 1 mM MgCl2, 50 mM NaCl, 2.7 mM KCl, 0.05% BSA, 0.005% Tween 20, and 10 μM IP4. […] The HDAC8 assay employed buffer D, consisting of 20 mM HEPES, pH 8.0, 1 mM MgCl2, 100 mM NaCl, 20 mM KCl, 0.10% n-octyl-β-D-glucoside (Anatrace) and 0.05% BSA. All steps were performed at room temperature (23° C.). The assay was performed by pre-incubating serial dilutions of test compounds with the target HDAC prior to initiation with substrate. Each compound was titrated in a 10-point dose response, using a 1:3 fold dilution scheme, with 0.15 ul of solution added by ECH0555 to the plate, followed by the addition of 20 μl of the appropriate HDAC isoform diluted in appropriate assay buffer. […] Final conditions used for each assay were: 1. HDAC 1, 0.3 nM total enzyme, 20 μM substrate BML-KI104; 2. […] HDAC 3/SMRT, 0.3 nM total enzyme, 20 μM substrate BML-KI104; 4. […] The reactions were stopped and developed by addition of 30 ul of HDAC developer solution containing a saturating level of HDAC inhibitor as follows: 1.

Recombinant human HDAC2 = biological target: T2, Recombinant human HDAC2 (Homo sapiens, UniProt Q92769); test: Human HDAC enzyme inhibitor Fluor-de-Lys assay, HDAC2
T2 construct: Full length human HDAC2-FLAG was expressed in baculovirus infected Sf9 cells; FLAG (C); made in house; host or cells: Sf9 (baculovirus)
Method: as §1, §2, §3, §4, §5

HDAC6 = biological target: T3, HDAC6 (Homo sapiens, UniProt Q9UBN7); test: Human HDAC enzyme inhibitor Fluor-de-Lys assay, HDAC6
T3 sequence (Q9UBN7 1-1215): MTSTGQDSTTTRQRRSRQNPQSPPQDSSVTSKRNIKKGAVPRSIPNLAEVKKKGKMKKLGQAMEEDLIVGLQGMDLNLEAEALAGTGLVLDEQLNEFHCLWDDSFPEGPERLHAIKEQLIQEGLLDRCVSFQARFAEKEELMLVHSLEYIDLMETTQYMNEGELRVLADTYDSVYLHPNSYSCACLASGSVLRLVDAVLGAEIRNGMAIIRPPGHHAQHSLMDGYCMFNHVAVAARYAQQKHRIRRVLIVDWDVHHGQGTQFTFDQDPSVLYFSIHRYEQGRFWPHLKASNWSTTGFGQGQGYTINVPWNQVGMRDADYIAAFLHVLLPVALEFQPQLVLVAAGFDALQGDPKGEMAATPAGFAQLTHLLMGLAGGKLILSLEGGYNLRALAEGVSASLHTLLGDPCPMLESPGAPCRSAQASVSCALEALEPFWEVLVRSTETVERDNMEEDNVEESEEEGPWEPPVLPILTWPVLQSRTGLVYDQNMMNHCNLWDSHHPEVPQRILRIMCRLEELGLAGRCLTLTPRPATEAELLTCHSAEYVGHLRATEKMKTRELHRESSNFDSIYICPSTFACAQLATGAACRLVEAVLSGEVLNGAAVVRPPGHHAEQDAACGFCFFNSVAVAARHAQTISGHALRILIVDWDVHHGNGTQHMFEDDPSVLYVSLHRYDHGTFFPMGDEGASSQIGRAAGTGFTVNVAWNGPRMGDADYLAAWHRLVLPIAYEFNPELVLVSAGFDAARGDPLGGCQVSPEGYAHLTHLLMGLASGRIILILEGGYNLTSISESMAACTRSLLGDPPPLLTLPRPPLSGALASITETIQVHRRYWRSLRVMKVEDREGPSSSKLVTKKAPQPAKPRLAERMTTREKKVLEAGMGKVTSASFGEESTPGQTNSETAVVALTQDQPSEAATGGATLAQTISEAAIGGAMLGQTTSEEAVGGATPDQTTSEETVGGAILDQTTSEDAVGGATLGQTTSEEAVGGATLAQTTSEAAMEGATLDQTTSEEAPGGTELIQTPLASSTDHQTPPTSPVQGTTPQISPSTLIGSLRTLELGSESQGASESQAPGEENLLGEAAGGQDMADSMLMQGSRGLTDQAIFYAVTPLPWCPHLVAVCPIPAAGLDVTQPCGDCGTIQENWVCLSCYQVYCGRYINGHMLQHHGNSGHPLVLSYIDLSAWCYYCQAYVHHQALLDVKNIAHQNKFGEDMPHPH

Recombinant human HDAC8 = biological target: T4, Recombinant human HDAC8 (Homo sapiens, UniProt Q9BY41); test: Human HDAC enzyme inhibitor Fluor-de-Lys assay, HDAC8
T4 construct: purchased Enzo Life Sciences BML-SE145-0100
T4 sequence (Q9BY41 1-377): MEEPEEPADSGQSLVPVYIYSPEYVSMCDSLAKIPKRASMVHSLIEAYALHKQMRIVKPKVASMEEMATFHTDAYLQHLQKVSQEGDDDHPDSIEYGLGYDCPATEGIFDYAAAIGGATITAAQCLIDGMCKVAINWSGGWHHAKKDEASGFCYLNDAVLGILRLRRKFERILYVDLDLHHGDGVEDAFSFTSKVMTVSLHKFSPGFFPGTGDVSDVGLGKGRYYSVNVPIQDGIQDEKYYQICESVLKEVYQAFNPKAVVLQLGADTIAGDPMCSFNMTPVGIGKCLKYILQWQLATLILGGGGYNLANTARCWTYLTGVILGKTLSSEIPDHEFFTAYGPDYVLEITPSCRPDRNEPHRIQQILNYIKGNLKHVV

T2 sequence (Q92769 whole entry): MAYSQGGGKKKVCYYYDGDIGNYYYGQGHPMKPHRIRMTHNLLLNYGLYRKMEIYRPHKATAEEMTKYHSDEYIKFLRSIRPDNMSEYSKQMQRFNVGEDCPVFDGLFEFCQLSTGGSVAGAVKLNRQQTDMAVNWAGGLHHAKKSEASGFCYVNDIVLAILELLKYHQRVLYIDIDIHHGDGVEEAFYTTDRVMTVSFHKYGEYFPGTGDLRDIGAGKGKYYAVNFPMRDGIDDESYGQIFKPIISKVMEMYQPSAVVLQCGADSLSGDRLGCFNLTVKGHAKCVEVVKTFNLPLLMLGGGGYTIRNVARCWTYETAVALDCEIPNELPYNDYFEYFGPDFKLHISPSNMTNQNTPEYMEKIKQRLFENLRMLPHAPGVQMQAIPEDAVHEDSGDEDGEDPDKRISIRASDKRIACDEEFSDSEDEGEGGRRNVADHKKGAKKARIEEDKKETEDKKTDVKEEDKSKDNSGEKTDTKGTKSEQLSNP
T1 sequence (Q13547 whole entry): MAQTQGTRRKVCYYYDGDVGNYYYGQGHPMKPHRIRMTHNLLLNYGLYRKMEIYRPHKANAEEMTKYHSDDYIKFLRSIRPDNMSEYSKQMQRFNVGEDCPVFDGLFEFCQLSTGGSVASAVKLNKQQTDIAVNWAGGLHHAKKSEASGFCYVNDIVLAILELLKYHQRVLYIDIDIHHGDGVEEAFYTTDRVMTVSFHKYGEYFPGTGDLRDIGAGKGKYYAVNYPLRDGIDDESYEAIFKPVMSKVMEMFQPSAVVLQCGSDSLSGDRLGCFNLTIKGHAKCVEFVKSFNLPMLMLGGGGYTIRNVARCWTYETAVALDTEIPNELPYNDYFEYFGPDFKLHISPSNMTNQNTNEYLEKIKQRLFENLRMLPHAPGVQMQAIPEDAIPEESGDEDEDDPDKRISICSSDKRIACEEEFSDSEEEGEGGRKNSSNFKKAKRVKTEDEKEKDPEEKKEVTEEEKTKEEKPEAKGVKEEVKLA

| SMILES | IC50 (Recombinant human HDAC1) [nM] | IC50 (Recombinant human HDAC2) [nM] | IC50 (HDAC6) [nM] | IC50 (Recombinant human HDAC8) [nM] |
| --- | --- | --- | --- | --- |
| CCN1CCC2(CC1)C[C@@H]2C(=O)N[C@@H](CCCCCC(=O)CC1CC1)c1ncc(-c2cc3ccc(C)nc3cc2OC)[nH]1 [Compound 165] | 1.18 | 8 | 11900 | 14700 |
| CCC(=O)CCCCC[C@H](NC(=O)C1(CC(C)C)CC2(CN(C)C2)C1)c1ncc(-c2ccc3nc(C)ccc3c2)[nH]1 [Compound 157] | 5.39 | 11.9 | 8530 | 4180 |
| COc1cc2nc(C)ccc2cc1-c1cnc([C@H](CCCCCC(=O)CC2CCC2)NC(=O)[C@H]2CC23CCN(C)CC3)o1 [Compound 185] | 15.1 | 38 | 36400 | > 45000 |
| CCC(=O)CCCCC[C@H](NC(=O)[C@H]1CC12CCN(C)CC2)c1ncc(-c2ccc3c(c2)C2CCC3C2)[nH]1 (some centres unmarked) [Compound 74] | 8.21 | 36.2 | 7850 | 4530 |
| CCC(=O)CCCCC[C@H](NC(=O)[C@H]1CC12CCN(C)CC2)c1ncc(-c2ccc3c(ccc(=O)n3C)c2)o1 [Compound 109] | 3.52 | 9.4 | 13400 | > 15000 |
| CCC(=O)CCCCC[C@H](NC(=O)C1=NOC2(CCN(CC)CC2)C1)c1ncc(-c2cc3ccc(C)nc3cc2OC)[nH]1 [Compound 207] | 0.24 | 2.1 | 1350 | 1590 |
| CCC(=O)CCCCC[C@H](NC(=O)C1CC12CCN(C)C(C)(C)C2)c1ncc(-c2ccc3nc(C)ccc3c2)[nH]1 (single isomer, unassigned) [Compound 131] | 0.48 | 2.5 | 2280 | 2780 |
| CCC(=O)CCCCC[C@H](NC(=O)C1CC2(C1)CN(C)C2)c1ncc(-c2ccc3nn(C)cc3c2)[nH]1 [Compound 147] | 2.29 | 10.3 | 3660 | 2770 |
| CCC(=O)CCCCC[C@H](NC(=O)[C@H]1CC12CCN(C)CC2)c1ncc(-c2ccc3nc(C4CC4)sc3c2)[nH]1 [Compound 146] | 1.06 | 3.3 | 7730 | 7710 |
| CCC(=O)CCCCC[C@H](NC(=O)[C@H]1CC12CCN(C)CC2)c1ncc(-c2ccc3cnc(OC)cc3c2)[nH]1 [Compound 113] | 1.37 | 6.6 | > 4500 | 2180 |
| CN1CCC2(CC1)C[C@@H]2C(=O)N[C@@H](CCCCCC(=O)CC(F)(F)F)c1ncc(-c2ccc(F)cc2)[nH]1 [Compound 68] | 8.74 | 126 | 6810 | 4410 |
| CCC(=O)CCCCC[C@H](NC(=O)[C@H]1CC12CCN(C)CC2)c1ncc(-c2ccc3nc(CC)sc3c2)[nH]1 [Compound 149] | 0.5 | 3.9 | 3660 | 2720 |
| CCC(=O)CCCCC[C@H](NC(=O)C1CN(C)C1)c1ncc(-c2ccc3c(c2)C2CCC3C2)[nH]1 (stereo partly drawn) [Compound 73, 1-methyl-N-{(1S)-7-oxo-1-[5-(1,2,3,4-tetrahydro-1,4-methanonaphthalen-6-yl)-1H-imidazol-2-yl]nonyl}azetidine-3-carboxamide] | 31 | 138 | 6510 | 3070 |
| CCC(=O)CCCCC[C@H](N)c1ncc(-c2cc3ccc(C)nc3cc2OC)[nH]1 [Compound 209, (S)-9-amino-9-(5-(7-methoxy-2-methylquinolin-6-yl)-1H-imidazol-2-yl)nonan-3-one] | 52.9 | 151 | > 900 | 144 |
| CCC(=O)CCCCC[C@H](NC(=O)C1=NOC2(CCN(C(C)C)CC2)C1)c1ncc(-c2cc3ccccc3nc2OC)[nH]1 [Compound 106, N-{(1S)-1-[5-(2-methoxyquinolin-3-yl)-1H-imidazol-2-yl]-7-oxononyl}-8-(1-methylethyl)-1-oxa-2,8-diazaspiro[4.5]dec-2-ene-3-carboxamide] | 1.73 | 7.9 | 1460 | 2780 |
| CCC(=O)CCCCC[C@H](NC(=O)C1=NOC2(CCN(C(C)C)CC2)C1)c1ncc(-c2ccc3nc(C4CC4)ccc3c2)o1 [Compound 136] | 10.3 | 31.2 | > 4500 | 4800 |
| CCC(=O)CCCCC[C@H](NC(=O)[C@H]1CC12CCN(C)CC2)c1ncc(-c2ccc(-c3ccc(C4CC4)nc3)cc2)o1 [Compound 143] | 65.1 | 207 | 3660 | 13100 |
| CCC(=O)CCCCC[C@H](NC(=O)C1CC12CC1CCC(C2)N1C)c1ncc(-c2ccc3ncccc3c2)[nH]1 (single isomer, unassigned) [Compound 166] | 0.37 | 2.2 | 229 | 5660 |
| CCC(=O)CCCCC[C@H](NC(=O)[C@H]1CC12CCN(C(C)C)CC2)c1ncc(-c2ccc3nc(C4CC4)ccc3c2)o1 [Compound 116] | 4.37 | 15.7 | 4730 | > 15000 |
| CCC(=O)CCCCC[C@H](NC(=O)[C@H]1CC12CCN(C)CC2)c1ncc(-c2ccc(C3CC3)nc2)[nH]1 [Compound 139] | 5.28 | 26.1 | 4450 | 12000 |
